Assay results as given in publication PMC5719086, “Effective in vivo gene delivery with reduced toxicity, achieved by charge and fatty acid -modified cell penetrating peptide” (Scientific Reports, 2017).
Where two headings read alike, the source gives them in different places. Square brackets hold non-standard residues; d marks the D form. Peptide text beside a SMILES is read from it. * marks the point of attachment. Stearoyl = CCCCCCCCCCCCCCCCCC(=O)*; Orn = NCCC[C@H](N)C(=O)O

Columns and labels:
[1] = target: T1, proteinase K (Parengyodontium album, UniProt P06873); assay: Proteinase K treatment of CPP/pDNA complexes; format: in vitro ADME; details: 26 °C
T1 construct: purchased Thermo Scientific
T1 sequence (P06873 106-384): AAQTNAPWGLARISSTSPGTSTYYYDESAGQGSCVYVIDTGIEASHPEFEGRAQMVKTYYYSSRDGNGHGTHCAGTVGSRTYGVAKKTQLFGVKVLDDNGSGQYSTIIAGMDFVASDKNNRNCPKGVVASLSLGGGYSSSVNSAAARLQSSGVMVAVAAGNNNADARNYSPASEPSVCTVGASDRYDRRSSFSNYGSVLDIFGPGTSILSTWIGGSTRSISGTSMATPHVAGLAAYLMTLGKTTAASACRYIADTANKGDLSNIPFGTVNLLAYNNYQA
Description: For the proteinase K treatment, 30 μl of pre-formed CPP/pDNA complex solution (0.3, 0.2, 0.1 and 0.05 µg of pDNA per sample) or CPP in MQ was transferred to a black 96-well plate and 90 µl of MQ was added. After a short period of mixing, fluorescent DNA intercalating dye dilution was added (Quant-iT™ PicoGreen®, ThermoFisher Scientific) and incubated for 5 minutes at room temperature. The fluorescence was measured (Synergy MX, BioTek; λex 492 and λem 535) to quantify the initial accessibility of pDNA. Thereafter 10 μl of Proteinase K (Thermo Scientific) was added with the final enzyme concentration ~2.4 U per well. Fluorescence was measured over an indicated period at 26 °C. The readings were normalized against the fluorescence of free pDNA.

[2] = system: CHO cells; assay: Plasmid delivery (luciferase) assay in cell culture; format: cell-based; details: 24-well plate
Description: If not indicated otherwise, complexes were formed using 0.5 μg of pDNA (pGL3, Promega, Sweden) mixed with a peptide at indicated charge ratio (N/P, nitrogen-to-phosphate ratio) in MQ water in a final volume of 50 μl. N/P was calculated theoretically and accounted for both the positive charges of the peptide (Table 1) and negative charges of the pDNA. Thereafter, complexes were incubated for 40 minutes at room temperature prior to each experiment.
For the plasmid delivery assay, 4 × 10^4 CHO cells were seeded 24 hours prior to each experiment in 24-well plates. Cells were treated with CPP/pDNA complexes at indicated N/P for 4 h in serum containing media, followed by the addition of 1 ml 10% serum-containing medium and incubated for another 20 hours. Thereafter, cells were washed with 1x PBS and lysed using 100 µl 0.1% Triton X-100 in PBS for 15 min at 4 °C. Luciferase activity was measured using Promega’s luciferase assay system according to the manufacturer’s protocol using a GLOMAX™ 96 microplate luminometer (Promega, Sweden) and normalized to the protein content (BioRad Protein Assay, USA).

[3] = Complex stability in FBS, gel shift assay; details: 50% FBS, 37 °C, 48 h, serum and/or triton + heparin dissociation
Description: Then the samples were mixed with the DNA loading dye and electrophoresed exactly as stated above in the Gel shift assay description, using 0.1 µg of pDNA per lane. ZipRuler Express DNA Ladder 2 (ThermoFisher Scientific) was added to each gel.
The stability of the complexes after incubation in FBS, visualized by gel shift assay.

[4] = system: mouse RBC; assay: Hemolysis assay (activity towards cell membranes); format: cell-based; details: 1 h 37 °C, triplicates
Description: The ability of the peptides to lyse the red blood cells (RBC) in PBS was used as a measure of membrane activity. To obtain fresh mouse RBC, blood was collected from the saphenous vein using sodium-heparinized (80 iu/ml ± 30%) blood collection capillaries (Marienfeld, Germany) and transferred to heparinized blood collecting tubes (Sarstedt, Germany). To isolate RBCs, the whole blood was centrifuged for 15 minutes at 300 × g, followed by removal of the plasma. The RBCs were then washed three times with 1 × PBS (RBC pelleting with 15 minutes at 300 × g). The resulting RBCs were then resuspended in PBS at 4% (v/v).
For the analysis, 200 μl of RBC suspension was added to 200 μl of peptide solution or peptide/pDNA complexes in 5% glucose (final RBC concentration 2%) and gently vortexed. The peptide/pDNA complexes were prepared using a fixed 1 μg of pDNA and varying amount of the peptide. Following this, samples were incubated for 1 hour at 37 °C with gentle stirring. After incubation, the RBCs were pelleted (15 minutes at 300 × g) and the amount of hemoglobin in the supernatant was assessed by measuring the absorbance at 540 nm using a 96-well microplate reader. The experiments were conducted in triplicates.
100% of hemolysis was defined as the RBCs treated with 0.1% Triton-X100 in PBS and 0% was obtained with cells incubated in 5% glucose solution. % of hemolysis was calculated by the formula: % Hemolysis = [(Asample − Aglucose)/Atriton − Aglucose)] × 100.

[5] = system: lungs; details: Cy5-labelled pDNA, i.v., 1 h post-injection, confocal microscopy of cryosections
Description: The physical accumulation of the complexes were assessed by using Cy5-labeled pDNA (Mirus, USA). Equal amounts of labelled pDNA were administered, regardless of the N/P ratio of the complexes (e.g. N/P4 included 20 μg of labelled pDNA, whereas in case of N/P2, 20 μg of labelled pDNA was mixed with 30 μg of unlabeled pDNA). For the histological evaluation, the lungs were inflated postmortem with 1:1 cryomatrix:PBS (O.C.T embedding matrix, Kaltek, Italy), frozen in 2-methylbutane bath on dry ice. Fresh cryo-sections (10 μm thick) were fixed with ice cold methanol, counterstained with DAPI (AppliChem) and imaged with confocal microscopy (Zeiss LSM710).

[6] = target: T1, proteinase K; format: in vitro ADME
[7] = system: BALB/c mice; assay: Side effects / lethality after i.v. injection of complexes; format: in vivo, mouse; details: PF14/pDNA at N/P2, i.v., all experiments
Description: For in vivo studies, 20–50 µg of p-CMV-Luc2 (marked as pLuc in the text) per animal was mixed with a peptide at indicated N/P in MQ in a final volume of 100 µl. After 40 minutes of incubation, glucose was added to a final 5% glucose in 200 μl and immediately injected intravenously via the tail vein.
Reporter gene expression levels were evaluated post mortem 24 h after injecting the complexes into the tail vein, using male and female BALB/c mice (8-week-old). Each animal received a single 200 μl i.v. injection of the complexes. The mice were sacrificed using cervical dislocation and tissues were harvested and snap-frozen on dry ice. The whole tissues were homogenized using a Precellys®24-Dual homogenization system (Bertin Technologies, France) and lysed using 1 × Promega lysis buffer (Promega, Sweden). The content of luciferase was analyzed as described previously. Briefly, homogenized tissues were thawed and 500 µl of Promega Reporter lysis 1 × buffer was added. The samples were subsequently vortexed for 15 minutes, subjected to three consecutive freeze-thaw cycles (liquid nitrogen and 37 °C water bath), centrifuged for three minutes at 10,000 x g, 4 °C; the supernatant was removed and saved for later analysis. […] Luciferase was measured with Promega luciferase assay system, in combination with GLOMAX 96 microplate luminometer (Promega, Sweden). […]

In the case of CCCCCCCCCCCCCCCCCC(=O)N[C@@H](C)C(=O)NCC(=O)N[C@@H](Cc1ccc(O)cc1)C(=O)N[C@@H](CC(C)C)C(=O)N[C@@H](CC(C)C)C(=O)NCC(=O)N[C@@H](CCCCN)C(=O)N[C@@H](CC(C)C)C(=O)N[C@@H](CC(C)C)C(=O)N[C@@H](CCCN)C(=O)N[C@@H](CCCN)C(=O)N[C@@H](CC(C)C)C(=O)N[C@@H](C)C(=O)N[C@@H](C)C(=O)N[C@@H](C)C(=O)N[C@@H](C)C(=O)N[C@@H](CC(C)C)C(=O)N[C@@H](CCCN)C(=O)N[C@@H](CCCN)C(=O)N[C@@H](CC(C)C)C(=O)N[C@@H](CC(C)C)C(N)=O [PF14] (Stearoyl-AGYLLGKLL[Orn][Orn]LAAAAL[Orn][Orn]LL-NH2), the “stability of the complexes against proteinase K (in words)” value ([1]; CPP/pDNA complexes at N/P2, accessible pDNA over time by intercalating dye) is reported as “less stable particles where DNA was liberated into the solution”, the “Proteinase K: t1/2 (min) of the complexed pDNA (95%CI)” value ([1]; CPP/pDNA complexes at N/P2 in MQ, proteinase K ~2.4 U per well, accessible pDNA by PicoGreen fluorescence, normalized to free pDNA) is reported as 108.3 (101.9 ± 118.4) min and the “usable pDNA dose before toxicity, N/P2” value ([2]; PF14/pDNA N/P2, CHO cells) is reported as “up to 2 μg”. For the same molecule, the “pDNA dose giving maximum transfection before toxicity, N/P4” value ([2]; PF14/pDNA N/P4, CHO cells) was 0.5 μg, the “usable pDNA dose before toxicity, N/P6” value ([2]; PF14/pDNA N/P6, CHO cells) was 0.125 μg and the “pDNA migration from complexes after 48 h in serum (in words)” value [3] was “migration of pDNA from some of the complexes could be observed”. For the same molecule, the EC50 ([4]; naked peptide in 5% glucose, mouse RBC 2% final in PBS, hemoglobin absorbance 540 nm, 100% = 0.1% Triton X-100, read-out: EC50 (μM) of CPP (membrane activity, concentration required to lyse 50% of the cells)) was 0.66 µM, the EC50 ([4]; peptide/pDNA complexes, fixed 1 μg pDNA and varying peptide, mouse RBC 2% final, absorbance 540 nm, read-out: EC50 (μM) of CPP/pDNA (membrane activity)) was 1.43 µM and the “accumulation of complexes in lungs, N/P2 (in words)” value [5] was “significantly lower signal”. The “accumulation of complexes in lungs, N/P4 (in words)” value [5] was “considerable amount of the fluorescence was observed in lungs”, the “degradation of naked peptide by proteinase K (in words)” value [6] was “easily degraded” and the “lethality / side effects, N/P2” value [7] was “zero lethality”.
